Series [1] has as its system T. cruzi NINOA (MHOM/MX/1994/NINOA) strain epimastigotes. Nature of the series: Trypanocidal activity, T. cruzi epimastigotes, NINOA strain (resazurin). The series is classed as cell-based, Trypanosoma cruzi. The settings on record: 48 h.
Series [2] relates to L. mexicana MNYC/BZ/62/M379 promastigotes. Nature of the series: Leishmanicidal activity, L. mexicana promastigotes, M379 strain (MTT). The series is classed as cell-based, Leishmania mexicana. Particulars: 48 h. As for the experimental part:
(§1) For leishmanicidal assays, the reference strain (MNYC/BZ/62/M379) and the isolate (MHOM/MX/2017/UABJO17FCQEPS) of L. mexicana were used. Promastigotes were cultured in RPMI 1640 medium supplemented with 10% FBS, 100 U/mL penicillin-100 […] streptomycin, and glutamine (2 mM). 100 µL parasites (5 × 10^5/mL) were added in a 96-well plate, and 100 µL of appropriate concentrations (0.78 to 200 µM) of each sample dissolved in DMSO and incubated for 48 h at 26 °C. Wells containing promastigotes with DMSO 0.2% were used as a negative control, and the reference drug glucantime was included as the positive control. The 3-(4,5-Dimethylthiazol-2-yl)-2,5-diphenyltetrazolium bromide (MTT) was used to measure metabolic activity. The IC50 values were calculated with the probit statistical tool. All samples were evaluated in triplicate in three independent experiments.

A short description of series [3]: Cytotoxicity on macrophages (MTT). The series is classed as cell-based, mouse. The settings on record: mouse, Cytotoxicity (CC50) Macrophages J774.2.
For series [4], the system named is L. mexicana MHOM/MX/2017/UABJO17FCQEPS promastigotes. Nature of the series: Leishmanicidal activity, L. mexicana promastigotes, FCQEPS isolate (MTT). It counts as cell-based, Leishmania mexicana. Particulars: 48 h, FCQEPS strain. The procedure:
as §1

The test system of series [5] is M. tuberculosis H37Rv (ATCC 27294). Nature of the series: Anti-Mycobacterium activity, microplate Alamar Blue Assay (MABA). It counts as cell-based, Mycobacterium tuberculosis. Particulars: H37Rv strain, minimum concentration achieving 90% inhibition; for MIC: Mycobacterium tuberculosis. As for the experimental part:
The reference strain H37Rv (ATCC 27294) of M. tuberculosis was utilized to assess anti-M. tuberculosis activity using the microplate Alamar Blue Assay (MABA), as previously reported. Samples underwent evaluation in triplicate independent experiments. Isoniazid, rifampicin, moxifloxacin, and linezolid were included as reference drugs, and the minimum drug concentration that achieved 90% inhibition was recorded as the minimum inhibitory concentration (MIC).
A general note: Resazurin is reduced to fluorescent resorufin, in cell work by metabolically active cells.

Series [6] concerns T. cruzi strain A1 epimastigotes. Nature of the series: Trypanocidal activity, T. cruzi epimastigotes, A1 strain (resazurin). Particulars: 48 h. It counts as cell-based, Trypanosoma cruzi.

What is called IC50 is the concentration that gives 50% inhibition. The low end stands for greater potency, the high end for weaker potency. As usually defined, the CC50 is the concentration that lowers cell viability or growth by half. Low values mean harm at low concentration, high ones better tolerance by the cells. The term MIC denotes the lowest concentration that inhibits growth of the organism. A high value points to a need for much substance.

In brackets after ≈: the same amount, converted by molar mass.

For the compound `COC(=O)c1ccc(/C=N/NC(=O)c2ccc(O)cc2)cc1` [Nfz-25], the “IC50 T. cruzi NINOA” value in series [1] is recorded as “no activity”. For the same compound, the IC50 in series [1] (Trypanosoma cruzi) was over 100 µM; in series [2] (Leishmania mexicana) it was 32.5 ± 6.1 µM; in series [4] (Leishmania mexicana) it was over 200 µM; in series [6] (Trypanosoma cruzi), over 100 µM. Further, the CC50 at 48 h in series [3] was over 100 µM. Further, the “MABA MIC” value in series [5] was 45.9 µg/mL. This compound had an MIC in series [5] of under 50 µg/mL. For the same compound, in series [6], the “IC50 T. cruzi A1” value is “inactive”.
In turn, `CO[C@H]1/C=C/O[C@@]2(C)Oc3c(C)c(O)c4c(O)c(c(/C=N/N5CCN(C)CC5)c(O)c4c3C2=O)NC(=O)/C(C)=C\C=C\[C@H](C)[C@H](O)[C@@H](C)[C@@H](O)[C@@H](C)[C@H](OC(C)=O)[C@@H]1C` [Rifampin, reference compound] gave a minimal inhibitory concentration (MIC) in series [5] of 0.074 µg/mL (≈ 0.0899 µM).
Turning to `CC1CS(=O)(=O)CCN1/N=C/c1ccc([N+](=O)[O-])o1` (stereo not shown) [Nifurtimox, reference compound], the IC50 was 7.09 ± 0.2 µM in series [1], 7 µM in series [1] (listed as Nfx), over 7 µM in series [1] (Trypanosoma cruzi) and 19.3 ± 0.8 µM in series [6] (Trypanosoma cruzi).
As for `NNC(=O)c1ccncc1` [Isoniazid, reference compound], the lowest concentration to inhibit growth in series [5] (MIC) was 0.039 µg/mL (≈ 0.284 µM).
On the same count and under the same terms, as for `COc1c(N2C[C@@H]3CCCN[C@@H]3C2)c(F)cc2c(=O)c(C(=O)O)cn(C3CC3)c12` [Moxifloxacin, reference compound], the figure is 0.184 µg/mL (≈ 0.458 µM).
For `O=C(N/N=C/c1ccc(O)cc1)c1ccc(O)cc1` [Nfz-9], the concentration for half-maximal inhibition (IC50) in series [1] (Trypanosoma cruzi) was 24.9 ± 3.2 µM; in series [4] (Leishmania mexicana), 94.3 ± 5.9 µM; in series [6] (Trypanosoma cruzi), over 100 µM. The compound further had a half-maximal cytotoxic concentration (CC50) at 48 h in series [3] of 82.7 ± 4.4 µM. In series [5], this compound yielded an MIC of 94.1 µg/mL (≈ 367 µM).
Turning to `O=C(Cn1ccnc1[N+](=O)[O-])NCc1ccccc1` [Benznidazole, reference compound], the IC50 in series [1] (listed as Bzn) was 30 µM; in series [1] (Trypanosoma cruzi), over 30 µM; in series [6], 39.1 ± 0.7 µM; in series [6] (Trypanosoma cruzi), 39 µM.
For the compound `Cc1ccc(/C=N/NC(=O)c2ccc(O)cc2)cc1` [Nfz-7], the 50% inhibitory concentration (IC50) in series [1] is 26 ± 2.9 µM; in series [1] (Trypanosoma cruzi) it was 26 µM; in series [4] (Leishmania mexicana) it was 103 ± 2.1 µM; in series [6], 75.2 ± 8.8 µM; in series [6] (Trypanosoma cruzi) it was over 70 µM. The same compound showed a CC50 at 48 h in series [3] of 91.7 ± 5.1 µM. For the same compound, the MIC in series [5] turned out to be 98.3 µg/mL (≈ 387 µM).
For the compound `O=C(N/N=C/c1cccs1)c1ccc(O)cc1` [Nfz-3], the IC50 is 51 ± 2.8 µM in series [1]; over 50 µM in series [1] (Trypanosoma cruzi); over 200 µM in series [2] (Leishmania mexicana); 49.8 ± 5 µM in series [4] (Leishmania mexicana); 20 ± 1.9 µM in series [6]; 19.9 µM in series [6] (Trypanosoma cruzi). For the same compound, the “IC50 L. mexicana M379” value in series [2] is on record as “no leishmanicidal effects”. In addition, the minimal inhibitory concentration (MIC) in series [5] is over 100 µg/mL.
For `CCc1ccc(/C=N/NC(=O)c2ccc(O)cc2)cc1` [Nfz-8], the IC50 in series [1] was 14.5 ± 4.4 µM; in series [1] (Trypanosoma cruzi), 14.4 µM; in series [4] (Leishmania mexicana), over 200 µM; in series [6] it was 7.28 ± 2.2 µM; in series [6] (Trypanosoma cruzi) it was 7.2 µM. Moreover, in series [3], the CC50 at 48 h is over 100 µM. This compound also showed an MIC in series [5] of 79.4 µg/mL (≈ 296 µM).
Compound `CC(=O)NC[C@H]1CN(c2ccc(N3CCOCC3)c(F)c2)C(=O)O1` [Linezolid, reference compound] showed a minimal inhibitory concentration (MIC) in series [5] of 0.33 µg/mL (≈ 0.978 µM).
In the case of `O=C(N/N=C/c1ccc([N+](=O)[O-])s1)c1ccc(O)cc1` [Nfz-1], the concentration for half-maximal inhibition (IC50) is 11.9 ± 3.2 µM in series [1]; 11.9 µM in series [1] (Trypanosoma cruzi); over 200 µM in series [2] (Leishmania mexicana); 32.9 ± 7 µM in series [4]; under 40 µM in series [4] (Leishmania mexicana); 14 ± 1.9 µM in series [6]. In series [6] (Trypanosoma cruzi), this compound yielded a half-maximal inhibitory concentration (IC50) of under 15 µM. The “IC50 L. mexicana M379” value in series [2] is reported as “no leishmanicidal effects”. Moreover, in series [3], the CC50 at 48 h came to 43.3 ± 2.7 µM.
As for `CC(=O)Nc1ccc(/C=N/NC(=O)c2ccc(O)cc2)cc1` [Nfz-24], the half-maximal inhibitory concentration (IC50) in series [2] was 54.2 ± 4 µM; in series [2] (Leishmania mexicana) it was 54.1 µM; in series [4] (Leishmania mexicana), 55.8 ± 3.5 µM; in series [6], 22.2 ± 1.4 µM; in series [6] (Trypanosoma cruzi) it was 22.1 µM. Also, the 50% cytotoxic concentration (CC50) at 48 h in series [3] was over 100 µM. In series [5], this compound displayed an MIC of over 100 µg/mL.
